# Laboratory results reported in the PolyMetriX glass transition set.
# ± gives the standard deviation of the reports.
row,Structure (SMILES),glass transition temperature [°C]
1,*Oc1ccc(C(c2ccccc2)(c2ccccc2)c2ccc(OC(=O)c3ccc(C(*)=O)cc3)cc2)cc1 (repeat unit),210.00
2,*Oc1ccc(C(C)c2ccc(OC(*)=S)cc2)cc1 (repeat unit),107.00
3,*CC(*)(F)C(=O)OC (repeat unit),142.00
4,*CC(*)c1cccc(F)c1 (repeat unit),86.00
5,*CC(*)c1ccccc1COCc1ccccc1 (repeat unit),72.00
6,*CCCOc1cccc(C(=O)OC(=O)c2cccc(O*)c2)c1 (repeat unit),53.00
7,*Oc1ccc(CC(NC(=O)CCc2ccc(OC(=O)CCC(C)CC(*)=O)cc2)C(=O)OCc2ccccc2)cc1 (repeat unit),55.00
8,*c1ccc(OCCOCCOc2cccc(N3C(=O)c4ccc(Oc5ccc6c(c5)C(=O)N(*)C6=O)cc4C3=O)c2)cc1 (repeat unit),146.50
9,*c1c(C)cc(-c2cc(C)c(N3C(=O)c4ccc(Oc5ccc(C(C)(C)c6ccc(Oc7ccc8c(c7)C(=O)N(*)C8=O)cc6)cc5)cc4C3=O)c(C)c2)cc1C (repeat unit),280.00
10,*c1ccc(Sc2ccc(Sc3ccc(N4C(=O)c5ccc(Oc6ccc7c(c6)C(=O)N(*)C7=O)cc5C4=O)cc3)s2)cc1 (repeat unit),218.00
11,*CC(*)C(=O)OCC(C)C (repeat unit) [Poly(isobutyl acrylate) ],-24 ± 30
12,*C(=O)Nc1ccc(Oc2ccc(-c3ccc(Oc4ccc(NC(=O)c5ccc6c(c5)C(=O)N(c5cccc(N7C(=O)c8ccc(*)cc8C7=O)c5)C6=O)cc4)cc3)cc2)cc1 (repeat unit),292.00
13,*CCCCCCOc1ccc(/C=C/c2ccc(O*)cc2)cc1 (repeat unit),76.00
14,*/C(C)=C(/*)[Si](C)(C)C[Si](C)(C)C (repeat unit),200.00
15,*c1ccc(Oc2ccc(N3C(=O)N4C(c5ccc(OC)cc5)N(*)C(=O)N4C3c3ccc(OC)cc3)cc2)cc1 (repeat unit),163.00
16,*OP(=O)(Oc1ccc(C)cc1)Oc1c(Br)cc(C(c2cc(Br)c(*)c(Br)c2)(C(F)(F)F)C(F)(F)F)cc1Br (repeat unit),146.00
17,*CC(*)C(=O)OCC(F)(F)C(F)(F)OC(F)(F)F (repeat unit),-55.00
18,*Oc1ccc(NC(=O)CCCCCCC(=O)Nc2ccc(OC3COC4C(*)COC34)cc2)cc1 (repeat unit),72.50
19,*Oc1ccccc1Oc1ccc(S(=O)(=O)c2ccc(*)cc2)cc1 (repeat unit),171.00
20,*CCCCCCOC(=O)C(CCCCCBr)C(=O)OCCCCCCOc1ccc(-n2on2-c2ccc(O*)cc2)cc1 (repeat unit),7.00
21,*CC(*)(C)C(=O)OCCCCCc1ccc(/N=N/c2ccc(OC(F)(F)F)cc2)cc1 (repeat unit),202.50
22,*c1ccc(-c2cc(-c3ccc(OCCCCCCCCCCCC)cc3)cc(-c3ccc(-c4ccc5c(c4)C(CCCCCC)(CCCCCC)c4cc(*)ccc4-5)cc3)c2-c2ccc(OCCCCCCCCCCCC)cc2)cc1 (repeat unit),79.00

row,Structure (SMILES),glass transition temperature [°C]
1,*C(=O)Nc1c(C)cc(Cc2cc(C)c(NC(=O)c3ccc4c(c3)C(=O)N(c3ccc(/N=N/c5ccc([N+](=O)[O-])cc5)c(N5C(=O)c6ccc(*)cc6C5=O)c3)C4=O)c(C)c2)cc1C (repeat unit),280.00
2,*CCCCCCCCCCCOC(=O)c1cc(OCCCCCCCCOc2ccc(/N=N/c3ccc(OC)cc3)cc2)cc(C(=O)OCCCCCCCCCCCOc2ccc(-c3ccc(O*)cc3)cc2)c1 (repeat unit),60.00
3,*c1ccc2c(c1)C(=O)N(c1cccc(Oc3ccc(S(=O)(=O)c4ccc(Oc5cccc(N6C(=O)c7ccc(C(*)(C(F)(F)F)C(F)(F)F)cc7C6=O)c5)cc4)cc3)c1)C2=O (repeat unit),209.50
4,*CC(O)CN(C)S(=O)(=O)c1cccc(S(=O)(=O)N(C)CC(O)COc2ccc(C3(c4ccc(O*)cc4)c4ccccc4-c4ccccc43)cc2)c1 (repeat unit),127.00
5,*CC(*)(C)C(=O)OC1CCCCC1 (repeat unit) [Poly(cyclohexyl methacrylate)],101.92 ± 20
6,*Nc1cc(NC(=O)c2cc(OCCCS(=O)(=O)c3ccc(/N=N/c4ccc(N(C)C)cc4)cc3)cc(C(*)=O)c2)cc(C(=O)OCCCN(C)c2ccc(/N=N/c3ccc(S(C)(=O)=O)cc3)cc2)c1 (repeat unit),166.00
7,*CCN(CCOC(=O)Nc1ccc(Cc2ccc(NC(=O)O*)cc2)cc1)c1ccc(/N=N/c2ccc([N+](=O)[O-])cc2)c(C)c1 (repeat unit),115.00
8,*CC(c1ccccc1)C1C(=O)N(CCCN(CC)c2ccc(/N=N/c3ccc([N+](=O)[O-])cc3)c(C)c2)C(=O)C1* (repeat unit),137.00
9,*Oc1ccc(S(=O)(=O)c2ccc(Oc3ccc(C(C)(C)c4ccc(*)c(C)c4)cc3C)cc2)cc1 (repeat unit),180.00
10,*Oc1ccc(C(C)(c2ccccc2)c2ccc(OC(=O)c3cccc(C(*)=O)c3)cc2)cc1 (repeat unit),202.00
11,*OP(=O)(Oc1ccccc1)Oc1ccc(-c2ccc(*)cc2)cc1 (repeat unit),112.00
12,*Oc1ccc(S(=O)(=O)c2ccc(Oc3ccc(C(C)(C)c4ccc(OCCCCOc5ccc(C(C)(C)c6ccc(*)cc6)cc5)cc4)cc3)cc2)cc1 (repeat unit),140.00
13,*O[Si](*)(C)CCC(F)(F)F (repeat unit),-69.00
14,*CCCCOCCCCOCCCCOC(=O)c1ccc(/N=C/c2ccc(/C=N/c3ccc(C(=O)O*)cc3)cc2)cc1 (repeat unit),-13.20
15,*CCCCCCNC(=O)c1ccc(C(=O)N*)c(Oc2ccc(Cl)cc2)c1 (repeat unit),112.00
16,*CC(*)C(=O)c1ccc(Br)cc1 (repeat unit),101.50
17,*Oc1ccc(C2(c3ccc(Oc4ccc(C(=O)c5ccccc5)c(-c5cc(*)ccc5C(=O)c5ccccc5)c4)cc3)c3ccccc3-c3ccccc32)cc1 (repeat unit),215.00
18,*CCN(CCOC(=O)c1cccc(C(=O)O*)c1)c1ccc(/N=N/c2ccc(-c3nc4ccc([N+](=O)[O-])cc4n3CC)cc2)cc1 (repeat unit),147.00
19,*c1ccc(Oc2ccc(C(C)(C)c3ccc(Oc4ccc(N5C(=O)c6ccc(Oc7ccccc7Oc7ccc8c(c7)C(=O)N(*)C8=O)cc6C5=O)cc4C(F)(F)F)cc3)cc2)c(C(F)(F)F)c1 (repeat unit),192.00
20,*CC(*)(C)C(=O)OCc1ccc2c(c1)c1ccccc1n2CCCCCCCCCC (repeat unit),29.00
21,*CC(*)(C)C(=O)OCCCCCCOc1ccc(/N=N/c2ccc(C3OCC4(CO3)CC3C=CC4C3)cc2)cc1 (repeat unit),118.50
22,*Oc1ccc(NC(=O)c2ccc(OC3COC4C(Oc5ccc(C(=O)Nc6ccc(OC7COC8C(*)COC78)cc6)cc5)COC34)cc2)cc1 (repeat unit),165.00

row,Structure (SMILES),glass transition temperature [°C]
1,*C/C=C/C[Si](*)(C)CCCOc1ccccc1 (repeat unit),-30.00
2,*c1cccc(NC(=O)CCCCCCC(=O)Nc2cccc(S(*)(=O)=O)c2)c1 (repeat unit),125.00
3,*CCCCCCCCN1C(=O)c2ccc(-c3ccc(-c4ccc5c(c4)C(=O)N(*)C5=O)cc3)cc2C1=O (repeat unit),120.00
4,*Oc1ccc(P(=O)(c2ccccc2)c2ccc(Oc3ccc(C(c4ccc(*)cc4)(C(F)(F)F)C(F)(F)F)cc3)cc2)cc1 (repeat unit),210.50
5,*=CNc1ccc(Cc2ccc(N=*)cc2)cc1 (repeat unit),95.50
6,*c1ccc(C(=O)c2ccc(Oc3ccc(-c4nn(*)c(=O)c5ccccc45)cc3Br)cc2)cc1 (repeat unit),254.00
7,*CCC(=O)Nc1ccc(Oc2ccc(Oc3ccc(NC(=O)CCN4C(=O)c5ccc(C(=O)c6ccc7c(c6)C(=O)N(*)C7=O)cc5C4=O)cc3)cc2)cc1 (repeat unit),221.00
8,*c1ccc2c(c1)C(=O)N(c1ccc(C(c3ccc(C)c(N4C(=O)c5ccc(C(*)(C(F)(F)F)C(F)(F)F)cc5C4=O)c3)(C(F)(F)F)C(F)(F)F)cc1C)C2=O (repeat unit),266.00
9,*CC1CCC(COC(=O)O*)CC1 (repeat unit),38.70
10,*Oc1ccc(S(=O)(=O)c2ccc(Oc3ccc(S(=O)(=O)c4ccc(-c5ccc(S(=O)(=O)c6ccc(*)cc6)cc5)cc4)cc3)cc2)cc1 (repeat unit),267.00
11,*C(=O)c1ccc2c(c1)C(=O)N(c1ccc(-c3ccc(Oc4ccc(C5(C)CC(C)(C)c6ccc(Oc7ccc(-c8ccc(N9C(=O)c%10ccc(*)cc%10C9=O)cc8)cc7C(F)(F)F)cc65)cc4)c(C(F)(F)F)c3)cc1)C2=O (repeat unit),252.00
12,*Oc1cccc(Oc2ccc(NC(=O)c3cc(NC(=O)c4ccc(OC(C)=O)cc4)cc(C(=O)Nc4ccc(*)cc4)c3)cc2)c1 (repeat unit),230.00
13,*CC(*)c1ccccc1C(=O)OCCC(C)C (repeat unit),68.00
14,*CC(*)C(=O)OCC1(CC)COCOC1 (repeat unit),42.00
15,*c1ccc(Oc2ccccc2Oc2ccc(N3C(=O)c4ccc(Oc5cc6ccccc6cc5Oc5ccc6c(c5)C(=O)N(*)C6=O)cc4C3=O)cc2)cc1 (repeat unit),204.00
16,*CCCCCOC(=O)O* (repeat unit),-42.9
17,*Oc1ccc(-c2ccc(OC(=O)c3cc(CCCCC)cc(C(*)=O)c3)cc2)cc1 (repeat unit),138.00
18,*CCN(*)C(=O)CC12CC3CC(CC(C3)C1)C2 (repeat unit),139.00
19,*CC(*)c1ccc([Si](C)(C)C)cc1 (repeat unit),136.00
20,*C(=O)c1ccc(Oc2c(C)cc(-c3cc(C)c(Oc4ccc(C(=O)c5ccc6nc(*)ccc6c5)cc4)c(C)c3)cc2C)cc1 (repeat unit),180.00
